Experimental findings from patent publication US20210046114A1, “HPV IMMUNOTHERAPY” (The Council of the Queensland Institute of Medical Research, priority 2018, published 2021) are described below.

Assay [1] relates to HPV-specific T cells from HNC patients. Briefly: HPV T-cell epitope mapping by intracellular cytokine staining (ICS). The note with it: for T cell specificity: epitopes mapped in HNC patient T cells, Table 1; for epitope identified by fine-mapping: FIG. 5 and FIG. 6. Type of assay: cell-based, human. The protocol:
(§1) Peripheral blood mononuclear cells (PBMCs) from HNC patients were isolated and stimulated with HPV antigen pepmix peptide pools for either HPV16 or HPV18 in separate cultures and prepared for the intracellular cytokine staining (ICS) assay, as described above (non-stimulated controls were run in parallel). T cell response to the pepmix peptide pools was analyzed to identify individual peptides. These individual peptides were further assessed for T cell expansion and ICS analysis to identify potential epitopes. Once the 15mer peptide was identified, further mimimalization of the epitope sequence was carried out to identify the optimal T cell epitope sequence. The 15mer peptide sequences were trimmed from both N- and C-terminus to a minimal of 9-14 amino acid long peptides. Once the minimal peptide sequence was identified, further confirmation was carried out using limiting dose titration ICS assay. After mapping minimal epitope sequence, the HLA restriction of the epitope was identified by stimulating T cells using peptide loaded HLA-matched and mismatched PHA blasts (PHA).
Representative data showing that HPV-specific T cells from HNC patients recognized HPV16-E6, HPV18-E6 antigens can be found in FIGS. 1 and 2, respectively. In order to map the T cell epitope, further analysis was carried out using sub pools of E6 peptides. […] When analyzed on an HPV peptide matrix layout, the common peptide sequence among the responding pools was identified.

The subject of assay [2] is HPV-specific T cells / HLA-matched and mismatched PHA blasts. Briefly: HLA restriction mapping with peptide loaded HLA-matched and mismatched PHA blasts. Type of assay: cell-based, human. As to conditions: epitopes mapped in HNC patient T cells, Table 1. On the procedure:
as §1

Consider “AFRDLCIVY (listed as Human papillomavirus)”, for which, in assay [1], the T cell specificity result is recorded as “CD8^+”. For “WPTTPPRPI (listed as Human papillomavirus)”, the T cell specificity entry in assay [1] was “CD8^+”. Same read-out and setting: with TLLQQYCLYL the entry was “CD8^+”. Turning to “SEIAYKYAQ (listed as Human papillomavirus)”, the T cell specificity result in assay [1] was “CD8^+”. “RCINCQKPLCPEEKQRHLD (listed as Human papillomavirus)”: the HLA restriction result in assay [2] is “DRB115:01”. Moreover, in assay [1], the T cell specificity entry is on record as “CD4^+”. The like results for “VYDYAFRDLCIVYRDGNPYAVCD (listed as Human papillomavirus)” were, in that order, “DRB115:01” and “CD4^+”.

With “TPTLHEYMLDLQPETTDLY (listed as Human papillomavirus)”, the HLA restriction result in assay [2] was “DQB1*03:01”. Moreover, the T cell specificity entry in assay [1] is on record as “CD4^+”. With “RPFKSNKST (listed as Human papillomavirus)”, the T cell specificity entry in assay [1] is recorded as “CD8^+”. Still for that read-out and setting: the result for “LEDLLMGTLGI (listed as Human papillomavirus)” reads “CD8^+”; that for “NLDTASTTL (listed as Human papillomavirus)”, “CD8^+”; that for “HDIILECVY (listed as Human papillomavirus)”, “CD8^+”. Same read-out and setting: with “LQDVSLEVYL (listed as Human papillomavirus)” the entry was “CD8^+”. On to “VWEVHAGGQVI (listed as Human papillomavirus)”, for which the T cell specificity entry in assay [1] is “CD8^+”. Same read-out and setting: with “FRDLCIVYR (listed as Human papillomavirus)” the entry was “CD8^+”; with “DRAHYNIVTF (listed as Human papillomavirus)”, “CD8^+”. On to “SPATAFTVY (listed as Human papillomavirus)”, for which, in assay [1], the T cell specificity entry is “CD8^+”.

With “SVDSAPILTAFNSSH (listed as Human papillomavirus)”, the HLA restriction result in assay [2] is listed as “DQB1*03:01”. The T cell specificity result in assay [1] was “CD4^+”. As for “TVLELTEVFEFA (listed as Human papillomavirus)”, in assay [1], the “epitope identified by fine-mapping” value is listed as “HPV18-E6 CD^+ T cell epitope” and the T cell specificity entry is “CD8^+”.

Take “KLPQLCTEL (listed as Human papillomavirus)”: in assay [1], the T cell specificity entry was “CD8^+”. As to “SAFRCFIVY (listed as Human papillomavirus)”, the T cell specificity entry in assay [1] is listed as “CD8^+”. On to “TVLELTEVFEF (listed as Human papillomavirus)”, for which, in assay [1], the T cell specificity entry is reported as “CD8^+”. For “YEQLNDSSEEEDEID (listed as Human papillomavirus)”, in assay [2], the HLA restriction result is “DQB1*03:01”. For the same sequence, the T cell specificity entry in assay [1] is recorded as “CD4^+”. The like results for “HIDYWKHMRLECALY (listed as Human papillomavirus)” were, in that order, “DQB1*03:01” and “CD4^+”.

As to “FELSQMVQW (listed as Human papillomavirus)”, the T cell specificity entry in assay [1] was “CD8^+”. As to “WKSFFSRTWSRLSLH (listed as Human papillomavirus)”, the HLA restriction entry in assay [2] is reported as “DRB1*04:01”. In addition, in assay [1], the T cell specificity entry was “CD4^+”. In the case of “GRWTGRCMSC (listed as Human papillomavirus)”, the T cell specificity result in assay [1] is reported as “CD8^+”. Regarding KQRFHNIRGRWTGRC, in assay [1], the “epitope identified by fine-mapping” value was “fine CD4 epitope-mapping of HPV16-E6 pools identified”. For “IRCINCQKPL (listed as Human papillomavirus)”, in assay [1], the T cell specificity result is recorded as “CD8^+”.

Regarding “VQSTHVDIRTLEDLLMGTL (listed as Human papillomavirus)”, the HLA restriction entry in assay [2] is recorded as “DQB1*03:01”. Moreover, in assay [1], the T cell specificity entry is listed as “CD4^+”. Take “TLQDVSLEVYL (listed as Human papillomavirus)”: the T cell specificity entry in assay [1] is given as “CD8^+”. The same measure, in the same setting: with “TIHDIILECV (listed as Human papillomavirus)” the entry was “CD8^+”. As to “EKQRHLDKKQRFHNIRGRWTGRCMSCC (listed as Human papillomavirus)”, the HLA restriction result in assay [2] is listed as “DRB115:01”. The T cell specificity result in assay [1] is reported as “CD4^+”.

As to LLMGTLGIV, in assay [1], the T cell specificity entry is reported as “CD8^+”.
